Literature values in publication PMC9026148, “Pre-Clinical Study Evaluating Novel Protein Phosphatase 2A Activators as Therapeutics for Neuroblastoma” (Cancers, 2022).

Tested on: CYP3A4
Design: method as in PMID 32954276
Settings: at 1 h, cited from earlier work

O=S(=O)(N[C@@H]1CCC[C@H](N2c3ccccc3Oc3ccccc32)[C@H]1O)c1ccc(OC(F)(F)F)cc1 [NZ-8-061]
time-dependent inhibition of CYP3A4 (fold shift): > 30 fold | IC50 (time-dependent inhibition): < 1000 nM
